Data reported in ChEMBL document CHEMBL6134874, “Identification of Nitric Oxide Donating Dasatinib Derivatives with Intraocular Pressure Lowering and Senolytic Activities” (J Med Chem, 2025).
pIC50: −log10 of the molar value. Calls of active or inactive are those of the source. No cut-off for these calls is given here.

Experiments:
[1] = Antiproliferative activity against mouse MEF cells assessed as inhibition of cell proliferation measured after 72 hrs by CCK-8 method; assay type: functional, cell-based
[2] = Inhibition of senescence in mouse MEF cells measured after 72 hrs by CCK-8 method; assay type: functional, cell-based
[3] = Senolytics index ratio of IC50 for antiproliferative activity against mouse MEF cells to IC50 for inhibition of senescence in mouse MEF cells; assay type: functional
[4] = Toxicity in C57BL/6J mouse assessed as effect on discernible conjunctival hyperemia administered as 10 mM eye drop measured up to 4 hrs; conditions: in vivo, topical_or_ocular, 10000 µM
[5] = test system: Mus musculus; experiment: Anti-glaucoma activity against magnetic microbead-induced ocular hypertensive COHT C57BL/6J mouse model assessed as intraocular pressure lowering efficacy administered as 10 mM eye drop measured after 4 hrs; assay type: functional
[6] = test system: Mus musculus; experiment: Anti-glaucoma activity against magnetic microbead-induced ocular hypertensive COHT C57BL/6J mouse model assessed as reduction in intraocular pressure administered as 10 mM eye drop measured after 2 to 8 hrs; assay type: functional, organism-based; conditions: time 2-8 hrs
[7] = test system: Mus musculus; experiment: Neuroprotective activity against magnetic microbead-induced ocular hypertensive COHT C57BL/6J mouse model assessed as improvement in N1 wave amplitude at 10 mM administered eye drop thrice a day for 10 days […]; assay type: functional, organism-based; conditions: time 10.0 day
[8] = test system: HTM; experiment: Anti-glaucoma activity in BLEO-induced senescence in HTM cells assessed as decrease in proportion of SA-beta-Gal positive cells at 5 uM measured for 48 hrs by senescence-associated galactosidase staining based microscopic analysis; assay type: functional, cell-based; conditions: Homo sapiens
[9] = test system: Mus musculus; experiment: Anti-glaucoma activity against magnetic microbead-induced ocular hypertensive COHT C57BL/6J mouse model assessed as reduction in number of SA-betaGal positive cells per unit area of whole flat-mount retina at 10 mM administered eye drop thrice a day for 10 days by SA-beta Gal staining based […]; assay type: functional, organism-based; conditions: time 10.0 day
[10] = test system: Mus musculus; experiment: Neuroprotective activity against magnetic microbead-induced ocular hypertensive COHT C57BL/6J mouse model assessed as increase in retinal ganglion cells (RGC) survival at 10 mM administered eye drop thrice a day for 10 days by immunofluorescence staining based analysis; assay type: functional, organism-based; conditions: time 10.0 day
[11] = test system: Mus musculus; experiment: Anti-glaucoma activity against magnetic microbead-induced ocular hypertensive COHT C57BL/6J mouse model assessed as reduction in fraction of SA-beta-Gal positive area in retina at 10 mM administered eye drop thrice a day for 10 days by SA-beta Gal staining based […]; assay type: functional, organism-based; conditions: time 10.0 day
[12] = test system: Mus musculus; experiment: Neuroprotective activity against magnetic microbead-induced ocular hypertensive COHT C57BL/6J mouse model assessed as improvement in peak time of N1 wave at 10 mM administered eye drop thrice a day for 10 days […]; assay type: functional, organism-based; conditions: time 10.0 day
[13] = test system: Mus musculus; experiment: Neuroprotective activity against magnetic microbead-induced ocular hypertensive COHT C57BL/6J mouse model assessed as protection effect on retinal ganglion cells (RGC) at 10 mM administered eye drop thrice a day for 10 days; assay type: functional, organism-based; conditions: time 10.0 day
[14] = test system: Mus musculus; experiment: Neuroprotective activity against magnetic microbead-induced ocular hypertensive COHT C57BL/6J mouse model assessed as improvement in visual acuity of mouse at 10 mM administered eye drop thrice a day for 10 days by Optokinetic Reflex Assay; assay type: functional, organism-based; conditions: time 10.0 day
[15] = test system: HTM; experiment: Upregulation of cGMP level in HTM cells at 5 uM incubated for 24 hrs by ELISA method; assay type: functional, cell-based; conditions: Homo sapiens
[16] = test system: Mus musculus; experiment: Anti-glaucoma activity against magnetic microbead-induced ocular hypertensive COHT C57BL/6J mouse model assessed as reduction in intraocular pressure administered as 10 mM eye drop measured after 2 to 4 hrs; assay type: functional, organism-based; conditions: time 2-4 hrs
[17] = test system: Mus musculus; experiment: Anti-glaucoma activity against magnetic microbead-induced ocular hypertensive COHT C57BL/6J mouse model assessed as reduction in intraocular pressure administered as 10 mM eye drop measured after 8 hrs; assay type: functional, organism-based
[18] = test system: HTM; experiment: Upregulation of NO level in HTM cells at 5 uM incubated for 12 hrs by DAF-FM DA fluorescent probe based flow cytometry analysis; assay type: functional, cell-based; conditions: Homo sapiens

| Structure (SMILES) | Ratio IC50 [3] | pIC50 ([1]; Mus musculus, MEF, 72 h) | pIC50 ([2]; Mus musculus, MEF, 72 h) | also measured |
| --- | --- | --- | --- | --- |
| CS(=O)(=O)O.CS(=O)(=O)O.CS(=O)(=O)O.Cc1nc(Nc2ncc(C(=O)Nc3c(C)cccc3Cl)s2)cc(N2CCN(CCOC(=O)CCC(=O)OCCCCOc3no[n+]([O-])c3S(=O)(=O)c3ccccc3)CC2)n1 | 1.76 |  |  | pIC50 ([1]; mef): 5.88; pIC50 ([2]; mef): 6.12 |
| CS(=O)(=O)O.CS(=O)(=O)O.CS(=O)(=O)O.Cc1nc(Nc2ncc(C(=O)Nc3c(C)cccc3Cl)s2)cc(N2CCN(CCOC(=O)CCC(=O)OCCOCCOc3no[n+]([O-])c3S(=O)(=O)c3ccccc3)CC2)n1 | 3.25 |  |  | pIC50 ([1]; mef): 5.91; pIC50 ([2]; mef): 6.42; Activity [4]: Non-toxic; Activity [5]: 3.6 mmHg |
| Cc1nc(Nc2ncc(C(=O)Nc3c(C)cccc3Cl)s2)cc(N2CCN(CCO)CC2)n1 [DASATINIB ANHYDROUS] | 5.55 | 5.55 | 6.29 | Activity [6]: inactive; Activity [7]: Active; Activity [8]: Active; Activity [9]: Active; Activity [10]: Active; Activity [11]: Active; Activity [12]: Active; Activity [13]: Active; Activity [4]: Non-toxic; Activity [14]: inactive |
| Cc1nc(Nc2ncc(C(=O)Nc3c(C)cccc3Cl)s2)cc(N2CCN(CCOC(=O)CCC(=O)O[C@@H]3CO[C@H]4[C@@H]3OC[C@@H]4O[N+](=O)[O-])CC2)n1 | 0.61 | 6.48 | 6.27 |  |
| Cc1nc(Nc2ncc(C(=O)Nc3c(C)cccc3Cl)s2)cc(N2CCN(CCOC(=O)CCC(=O)OCCOCCOc3no[n+]([O-])c3S(=O)(=O)c3ccccc3)CC2)n1 [listing 1 of 2 here] |  |  |  | Activity [15]: Active; Activity [7]: Active; Activity [8]: Active; Activity [9]: Active; Activity [10]: Active; Compound Showed More Pronounced Effect Then Dasatinib; Activity [16]: Active; Activity [17]: inactive; Activity [11]: Active; Activity [18]: Active; Activity [12]: Active; Activity [13]: Active; Compound Showed Significant Effect Than Dasatinib; Activity [14]: Active |
| Cc1nc(Nc2ncc(C(=O)Nc3c(C)cccc3Cl)s2)cc(N2CCN(CCOC(=O)CCC(=O)OCCCCOc3no[n+]([O-])c3S(=O)(=O)c3ccccc3)CC2)n1 | 1.9 | 5.63 | 5.91 |  |
| Cc1nc(Nc2ncc(C(=O)Nc3c(C)cccc3Cl)s2)cc(N2CCN(CCOC(=O)CCC(=O)OCCCO[N+](=O)[O-])CC2)n1 | 3.13 | 5.85 | 6.35 |  |
| Cc1nc(Nc2ncc(C(=O)Nc3c(C)cccc3Cl)s2)cc(N2CCN(CCOC(=O)CCC(=O)OCCOc3no[n+]([O-])c3C)CC2)n1 | 2.73 | 5.87 | 6.31 |  |
| Cc1nc(Nc2ncc(C(=O)Nc3c(C)cccc3Cl)s2)cc(N2CCN(CCOC(=O)CCC(=O)OCCCCO[N+](=O)[O-])CC2)n1 | 1.67 | 5.75 | 5.97 |  |
| Cc1nc(Nc2ncc(C(=O)Nc3c(C)cccc3Cl)s2)cc(N2CCN(CCOC(=O)COc3no[n+]([O-])c3C)CC2)n1 | 2.45 | 5.89 | 6.28 |  |
| Cc1nc(Nc2ncc(C(=O)Nc3c(C)cccc3Cl)s2)cc(N2CCN(CCOC(=O)CCC(=O)OCCCCCO[N+](=O)[O-])CC2)n1 | 0.4 | 5.88 | 5.48 |  |
| Cc1nc(Nc2ncc(C(=O)Nc3c(C)cccc3Cl)s2)cc(N2CCN(CCO[N+](=O)[O-])CC2)n1 | 1.29 | 5.82 | 5.92 | Activity [18]: Active |
| Cc1nc(Nc2ncc(C(=O)Nc3c(C)cccc3Cl)s2)cc(N2CCN(CCOC(=O)CCC(=O)OCCO[N+](=O)[O-])CC2)n1 | 4.3 | 5.76 | 6.39 |  |
| Cc1nc(Nc2ncc(C(=O)Nc3c(C)cccc3Cl)s2)cc(N2CCN(CCOC(=O)CCC(=O)OCCOCCOc3no[n+]([O-])c3S(=O)(=O)c3ccccc3)CC2)n1 [listing 2 of 2 here] | 2.28 | 5.96 | 6.32 |  |
